Measured values taken from ChEMBL document CHEMBL5649169 (ChemMedChem, 2018).

Columns and labels:
[1] = target: Protein YIF1A (Homo sapiens) (UniProt O95070)
[2] = target: RNA polymerase-associated protein CTR9 homolog (Homo sapiens) (UniProt Q6PD62)
[3] = target: Signal recognition particle receptor subunit alpha (Homo sapiens) (UniProt P08240)
[4] = target: AP-3 complex subunit delta-1 (Homo sapiens) (UniProt O14617)
Cullin-5 (Homo sapiens) = Cullin-5 (Homo sapiens) (UniProt Q93034)
[5] = target: NADH dehydrogenase [ubiquinone] flavoprotein 2, mitochondrial (Homo sapiens) (UniProt P19404)
[6] = target: ATP-dependent RNA helicase DHX29 (Homo sapiens) (UniProt Q7Z478)
[7] = target: Polyadenylate-binding protein 4 (Homo sapiens) (UniProt Q13310)
Radixin (Homo sapiens) = Radixin (Homo sapiens) (UniProt P35241)
[8] = target: Glucocorticoid receptor (Homo sapiens) (UniProt P04150)
[9] = target: Ubiquitin-conjugating enzyme E2 G2 (Homo sapiens) (UniProt P60604)
[10] = target: Replication factor C subunit 1 (Homo sapiens) (UniProt P35251)
[11] = target: H/ACA ribonucleoprotein complex subunit 1 (Homo sapiens) (UniProt Q9NY12)
[12] = target: Choline/ethanolaminephosphotransferase 1 (Homo sapiens) (UniProt Q9Y6K0)
[13] = target: Hydroxyacyl-coenzyme A dehydrogenase, mitochondrial (Homo sapiens) (UniProt Q16836)
[14] = target: Receptor for retinol uptake STRA6 (Homo sapiens) (UniProt Q9BX79)
[15] = target: Nuclear cap-binding protein subunit 2 (Homo sapiens) (UniProt P52298)
[16] = target: Calcium-binding and coiled-coil domain-containing protein 2 (Homo sapiens) (UniProt Q13137)
[17] = target: Eukaryotic translation initiation factor 2-alpha kinase 1 (Homo sapiens) (UniProt Q9BQI3)
[18] = target: Periphilin-1 (Homo sapiens) (UniProt Q8NEY8)
[19] = target: Kelch-like protein 6 (Homo sapiens) (UniProt Q8WZ60)
[20] = target: Transmembrane protein 94 (Homo sapiens) (UniProt Q12767)
[21] = target: Complex I assembly factor ACAD9, mitochondrial (Homo sapiens) (UniProt Q9H845)
[22] = target: E3 ubiquitin-protein ligase RNF5 (Homo sapiens) (UniProt Q99942)
[23] = target: Dolichyl-diphosphooligosaccharide--protein glycosyltransferase subunit STT3B (Homo sapiens) (UniProt Q8TCJ2)
[24] = target: Ribosomal protein S6 kinase beta-1 (Homo sapiens) (UniProt P23443)
[25] = target: Transducin beta-like protein 3 (Homo sapiens) (UniProt Q12788)
[26] = target: Phosphatidate cytidylyltransferase 2 (Homo sapiens) (UniProt O95674)
[27] = target: Microfibrillar-associated protein 1 (Homo sapiens) (UniProt P55081)
[28] = target: Very-long-chain (3R)-3-hydroxyacyl-CoA dehydratase 3 (Homo sapiens) (UniProt Q9P035)
[29] = target: Probable rRNA-processing protein EBP2 (Homo sapiens) (UniProt Q99848)
[30] = target: Calcyclin-binding protein (Homo sapiens) (UniProt Q9HB71)
[31] = target: Reticulon-3 (Homo sapiens) (UniProt O95197)
[32] = target: F-actin-capping protein subunit alpha-1 (Homo sapiens) (UniProt P52907)
[33] = target: Phosphopentomutase (Homo sapiens) (UniProt Q96G03)
[34] = target: 3-hydroxyacyl-CoA dehydrogenase type-2 (Homo sapiens) (UniProt Q99714)
[35] = target: Dolichol-phosphate mannosyltransferase subunit 1 (Homo sapiens) (UniProt O60762)
[36] = target: Dynamin-like GTPase OPA1, mitochondrial (Homo sapiens) (UniProt O60313)
[37] = target: Proteasome subunit alpha type-3 (Homo sapiens) (UniProt P25788)
Translin (Homo sapiens) = Translin (Homo sapiens) (UniProt Q15631)
[38] = target: Histone H1.2 (Homo sapiens) (UniProt P16403)
[39] = target: Protein-L-isoaspartate(D-aspartate) O-methyltransferase (Homo sapiens) (UniProt P22061)
[40] = target: Transaldolase (Homo sapiens) (UniProt P37837)
[41] = target: Chloride intracellular channel protein 4 (Homo sapiens) (UniProt Q9Y696)
[42] = target: Importin-7 (Homo sapiens) (UniProt O95373)
[43] = target: Exportin-1 (Homo sapiens) (UniProt O14980)
Further: assay method not described here.

Sequence of Periphilin-1 (Homo sapiens) (Q8NEY8 whole entry): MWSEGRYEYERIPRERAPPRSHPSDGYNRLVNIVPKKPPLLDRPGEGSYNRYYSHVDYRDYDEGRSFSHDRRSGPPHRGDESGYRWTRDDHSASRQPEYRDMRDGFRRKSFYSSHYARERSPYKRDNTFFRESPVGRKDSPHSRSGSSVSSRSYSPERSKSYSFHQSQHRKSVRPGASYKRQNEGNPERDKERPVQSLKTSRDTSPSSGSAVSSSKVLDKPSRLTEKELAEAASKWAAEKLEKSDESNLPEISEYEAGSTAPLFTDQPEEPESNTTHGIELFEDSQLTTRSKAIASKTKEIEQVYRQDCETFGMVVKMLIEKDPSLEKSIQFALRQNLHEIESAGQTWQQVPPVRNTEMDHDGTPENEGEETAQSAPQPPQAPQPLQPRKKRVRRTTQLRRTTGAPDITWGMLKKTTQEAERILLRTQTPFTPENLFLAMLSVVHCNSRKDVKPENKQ
Sequence of E3 ubiquitin-protein ligase RNF5 (Homo sapiens) (Q99942 whole entry): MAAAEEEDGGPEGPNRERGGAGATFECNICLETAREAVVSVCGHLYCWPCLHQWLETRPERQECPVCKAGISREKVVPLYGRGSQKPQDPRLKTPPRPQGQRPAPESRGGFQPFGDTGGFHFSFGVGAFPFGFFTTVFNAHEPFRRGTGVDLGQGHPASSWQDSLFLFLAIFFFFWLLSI
Sequence of Phosphopentomutase (Homo sapiens) (Q96G03 whole entry): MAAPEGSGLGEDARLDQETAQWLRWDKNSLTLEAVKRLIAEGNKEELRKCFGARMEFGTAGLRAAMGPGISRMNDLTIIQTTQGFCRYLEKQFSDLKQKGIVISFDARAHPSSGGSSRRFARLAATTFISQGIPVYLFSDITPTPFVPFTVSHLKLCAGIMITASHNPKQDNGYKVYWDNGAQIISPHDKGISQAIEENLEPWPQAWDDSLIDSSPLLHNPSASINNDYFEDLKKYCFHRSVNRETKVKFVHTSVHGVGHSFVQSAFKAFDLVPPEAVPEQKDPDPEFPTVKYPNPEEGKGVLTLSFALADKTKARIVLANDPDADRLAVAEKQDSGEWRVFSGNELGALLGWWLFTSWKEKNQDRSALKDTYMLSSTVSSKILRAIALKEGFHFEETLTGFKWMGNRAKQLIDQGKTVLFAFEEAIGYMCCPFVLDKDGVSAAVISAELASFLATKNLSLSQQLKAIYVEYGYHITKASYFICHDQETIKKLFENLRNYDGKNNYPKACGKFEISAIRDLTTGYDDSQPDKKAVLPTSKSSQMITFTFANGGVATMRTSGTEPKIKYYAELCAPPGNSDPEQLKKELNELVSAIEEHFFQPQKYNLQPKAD
Sequence of Hydroxyacyl-coenzyme A dehydrogenase, mitochondrial (Homo sapiens) (Q16836 whole entry): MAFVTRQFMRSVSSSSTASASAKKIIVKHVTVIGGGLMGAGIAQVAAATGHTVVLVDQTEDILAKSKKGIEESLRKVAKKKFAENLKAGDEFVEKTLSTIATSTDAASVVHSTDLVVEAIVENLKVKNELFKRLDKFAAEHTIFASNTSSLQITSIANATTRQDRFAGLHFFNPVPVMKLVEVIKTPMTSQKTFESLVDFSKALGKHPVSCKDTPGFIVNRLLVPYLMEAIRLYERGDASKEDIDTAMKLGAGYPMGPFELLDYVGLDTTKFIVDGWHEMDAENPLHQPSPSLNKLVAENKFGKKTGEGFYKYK
Sequence of Proteasome subunit alpha type-3 (Homo sapiens) (P25788 whole entry): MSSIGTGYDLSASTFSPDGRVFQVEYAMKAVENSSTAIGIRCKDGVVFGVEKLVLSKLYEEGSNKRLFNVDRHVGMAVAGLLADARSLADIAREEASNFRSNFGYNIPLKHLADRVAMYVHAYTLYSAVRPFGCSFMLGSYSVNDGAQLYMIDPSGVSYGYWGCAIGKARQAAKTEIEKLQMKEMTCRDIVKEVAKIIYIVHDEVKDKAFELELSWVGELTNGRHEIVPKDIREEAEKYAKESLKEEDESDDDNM
Sequence of Protein YIF1A (Homo sapiens) (O95070 whole entry): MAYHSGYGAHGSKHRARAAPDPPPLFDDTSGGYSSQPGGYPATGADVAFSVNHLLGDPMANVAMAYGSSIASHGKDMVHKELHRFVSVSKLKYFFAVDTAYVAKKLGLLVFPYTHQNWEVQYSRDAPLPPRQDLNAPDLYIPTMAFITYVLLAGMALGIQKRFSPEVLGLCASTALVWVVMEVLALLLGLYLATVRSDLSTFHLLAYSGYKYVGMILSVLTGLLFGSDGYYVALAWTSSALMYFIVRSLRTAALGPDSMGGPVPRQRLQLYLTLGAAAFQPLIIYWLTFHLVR
Sequence of Transducin beta-like protein 3 (Homo sapiens) (Q12788 whole entry): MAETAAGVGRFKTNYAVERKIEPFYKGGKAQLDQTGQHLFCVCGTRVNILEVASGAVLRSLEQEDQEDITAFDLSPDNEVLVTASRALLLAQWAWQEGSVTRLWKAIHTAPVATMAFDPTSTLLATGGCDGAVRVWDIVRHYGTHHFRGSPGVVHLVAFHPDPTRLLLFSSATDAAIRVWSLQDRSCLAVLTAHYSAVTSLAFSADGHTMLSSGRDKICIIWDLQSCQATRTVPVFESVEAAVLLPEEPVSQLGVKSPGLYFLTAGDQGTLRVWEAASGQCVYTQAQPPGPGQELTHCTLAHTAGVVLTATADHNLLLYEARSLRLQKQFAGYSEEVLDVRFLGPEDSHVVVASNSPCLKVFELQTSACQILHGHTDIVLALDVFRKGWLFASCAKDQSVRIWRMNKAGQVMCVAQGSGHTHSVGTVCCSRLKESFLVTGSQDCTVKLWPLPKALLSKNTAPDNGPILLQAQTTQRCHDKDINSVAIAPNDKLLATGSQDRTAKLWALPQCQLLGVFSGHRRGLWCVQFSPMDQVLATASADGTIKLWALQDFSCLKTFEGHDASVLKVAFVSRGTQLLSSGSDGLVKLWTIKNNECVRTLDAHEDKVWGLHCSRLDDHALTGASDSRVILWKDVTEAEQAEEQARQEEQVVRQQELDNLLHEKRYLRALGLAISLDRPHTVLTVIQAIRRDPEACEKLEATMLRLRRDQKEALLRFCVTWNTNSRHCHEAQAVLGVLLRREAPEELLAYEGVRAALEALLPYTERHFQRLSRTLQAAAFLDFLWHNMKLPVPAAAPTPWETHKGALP
Sequence of Dynamin-like GTPase OPA1, mitochondrial (Homo sapiens) (O60313 whole entry): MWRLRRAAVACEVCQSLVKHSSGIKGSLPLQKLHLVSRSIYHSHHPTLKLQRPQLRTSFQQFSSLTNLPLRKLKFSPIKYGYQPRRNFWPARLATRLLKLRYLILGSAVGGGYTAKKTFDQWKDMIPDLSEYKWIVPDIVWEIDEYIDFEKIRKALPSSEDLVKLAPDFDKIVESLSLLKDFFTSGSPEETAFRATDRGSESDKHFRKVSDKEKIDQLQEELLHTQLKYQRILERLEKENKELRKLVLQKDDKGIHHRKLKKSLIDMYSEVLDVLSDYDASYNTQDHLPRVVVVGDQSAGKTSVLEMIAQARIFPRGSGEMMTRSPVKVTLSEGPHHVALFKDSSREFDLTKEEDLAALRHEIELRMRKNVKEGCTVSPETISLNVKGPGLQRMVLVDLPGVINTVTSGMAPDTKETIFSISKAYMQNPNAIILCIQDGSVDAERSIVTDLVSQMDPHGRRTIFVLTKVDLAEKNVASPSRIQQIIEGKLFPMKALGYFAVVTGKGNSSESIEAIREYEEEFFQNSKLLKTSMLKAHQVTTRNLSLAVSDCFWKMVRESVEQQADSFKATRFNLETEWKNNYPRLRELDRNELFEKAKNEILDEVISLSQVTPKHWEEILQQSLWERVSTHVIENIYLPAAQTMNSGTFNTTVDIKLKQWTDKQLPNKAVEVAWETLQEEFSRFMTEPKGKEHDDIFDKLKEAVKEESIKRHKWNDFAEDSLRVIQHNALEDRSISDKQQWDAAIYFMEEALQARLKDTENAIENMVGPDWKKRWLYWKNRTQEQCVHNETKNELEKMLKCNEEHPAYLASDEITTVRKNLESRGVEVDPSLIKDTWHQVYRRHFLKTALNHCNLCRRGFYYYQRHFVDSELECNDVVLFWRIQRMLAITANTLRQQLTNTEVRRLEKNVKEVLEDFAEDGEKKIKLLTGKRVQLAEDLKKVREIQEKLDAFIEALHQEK
Sequence of Complex I assembly factor ACAD9, mitochondrial (Homo sapiens) (Q9H845 whole entry, one chain of several): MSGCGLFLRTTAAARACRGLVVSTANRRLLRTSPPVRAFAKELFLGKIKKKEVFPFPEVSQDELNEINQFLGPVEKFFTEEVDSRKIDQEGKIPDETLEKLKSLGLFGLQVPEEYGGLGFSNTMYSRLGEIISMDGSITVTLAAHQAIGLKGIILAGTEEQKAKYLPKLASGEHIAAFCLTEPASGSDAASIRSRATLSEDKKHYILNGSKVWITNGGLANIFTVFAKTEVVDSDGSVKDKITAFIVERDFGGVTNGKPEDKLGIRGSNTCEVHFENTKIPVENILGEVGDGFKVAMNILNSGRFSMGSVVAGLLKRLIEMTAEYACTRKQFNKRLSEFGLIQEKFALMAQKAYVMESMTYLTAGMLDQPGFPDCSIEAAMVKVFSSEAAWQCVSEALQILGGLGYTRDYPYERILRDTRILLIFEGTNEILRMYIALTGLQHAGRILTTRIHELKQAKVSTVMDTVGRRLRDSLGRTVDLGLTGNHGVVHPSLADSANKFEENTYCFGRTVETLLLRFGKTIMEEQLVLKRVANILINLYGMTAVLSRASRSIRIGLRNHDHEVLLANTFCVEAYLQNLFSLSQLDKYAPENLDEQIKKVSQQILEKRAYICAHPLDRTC
Sequence of Chloride intracellular channel protein 4 (Homo sapiens) (Q9Y696 whole entry): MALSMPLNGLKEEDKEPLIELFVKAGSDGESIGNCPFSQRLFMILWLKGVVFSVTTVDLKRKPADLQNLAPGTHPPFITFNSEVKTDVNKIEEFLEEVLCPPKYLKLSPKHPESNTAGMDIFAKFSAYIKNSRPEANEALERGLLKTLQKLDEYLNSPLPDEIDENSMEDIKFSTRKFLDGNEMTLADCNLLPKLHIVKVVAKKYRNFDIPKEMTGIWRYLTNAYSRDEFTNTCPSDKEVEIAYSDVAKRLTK
Sequence of Histone H1.2 (Homo sapiens) (P16403 whole entry): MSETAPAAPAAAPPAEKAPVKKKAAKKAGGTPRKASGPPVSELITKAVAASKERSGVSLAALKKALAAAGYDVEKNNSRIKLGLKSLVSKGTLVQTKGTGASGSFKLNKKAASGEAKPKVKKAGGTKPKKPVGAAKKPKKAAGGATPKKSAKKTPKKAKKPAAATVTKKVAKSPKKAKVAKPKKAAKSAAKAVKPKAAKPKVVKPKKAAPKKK

**Q.** With Cc1ccc(C(=O)Nc2cccc(C(F)(F)F)c2)cc1Nc1nc(-c2cccnc2)nc2c1cnn2C as the compound, how does the ED50 (Homo sapiens) read?
**A.** Its ED50 is 1.71 nM.

**Q.** What about the ED50 [1] of the same compound?
**A.** Its ED50 is 30 nM.

**Q.** And the ED50 [2]?
**A.** The ED50 was 5720 nM.

**Q.** And the ED50 [3]?
**A.** The ED50 was 39400 nM.

**Q.** And the ED50 [4]?
**A.** Its ED50 is 5.84 nM.

**Q.** And the ED50 (Cullin-5 (Homo sapiens))?
**A.** The ED50 was 676 nM.

**Q.** And the ED50 [5]?
**A.** Its ED50 is 571 nM.

**Q.** What about the ED50 [6] of the same compound?
**A.** Its ED50 is 15300 nM.

**Q.** What about the ED50 [7] of the same compound?
**A.** Its ED50 is 12100 nM.

**Q.** What about the ED50 (Radixin (Homo sapiens)) of the same compound?
**A.** Its ED50 is 2 nM.

**Q.** And the ED50 [8]?
**A.** Its ED50 is 53300 nM.

**Q.** What about the ED50 [9] of the same compound?
**A.** The ED50 was 4.16 nM.

**Q.** What about the ED50 [10] of the same compound?
**A.** Its ED50 is 132 nM.

**Q.** And the ED50 [11]?
**A.** Its ED50 is 181 nM.

**Q.** What about the ED50 [12] of the same compound?
**A.** Its ED50 is 3.97 nM.

**Q.** What about the ED50 [13] of the same compound?
**A.** The ED50 was 6.25 nM.

**Q.** And the ED50 [14]?
**A.** Its ED50 is 73.5 nM.

**Q.** And the ED50 [15]?
**A.** The ED50 was 2.29 nM.

**Q.** And the ED50 [16]?
**A.** Its ED50 is 675 nM.

**Q.** And the ED50 [17]?
**A.** Its ED50 is 25600 nM.

**Q.** And the ED50 [18]?
**A.** Its ED50 is 336 nM.

**Q.** What about the ED50 [19] of the same compound?
**A.** Its ED50 is 56.7 nM.

**Q.** And the ED50 [20]?
**A.** Its ED50 is 77.6 nM.

**Q.** What about the ED50 [21] of the same compound?
**A.** The ED50 was 42800 nM.

**Q.** And the ED50 [22]?
**A.** The ED50 was 23200 nM.

**Q.** What about the ED50 [23] of the same compound?
**A.** Its ED50 is 626 nM.

**Q.** What about the ED50 [24] of the same compound?
**A.** The ED50 was 17600 nM.

**Q.** And the ED50 [25]?
**A.** The ED50 was 4700 nM.

**Q.** And the ED50 [26]?
**A.** The ED50 was 4330 nM.

**Q.** What about the ED50 [27] of the same compound?
**A.** The ED50 was 55200 nM.

**Q.** For Cc1ccc(C(=O)Nc2cccc(C(F)(F)F)c2)cc1Nc1nc(-c2cccnc2)nc2nn(C)cc12, which ED50 [28] is on record?
**A.** The ED50 was 17.3 nM.

**Q.** What about the ED50 [29] of the same compound?
**A.** Its ED50 is 43.2 nM.

**Q.** And the ED50 [30]?
**A.** Its ED50 is 506 nM.

**Q.** And the ED50 [31]?
**A.** Its ED50 is 20.6 nM.

**Q.** What about the ED50 [32] of the same compound?
**A.** The ED50 was 1490 nM.

**Q.** And the ED50 [33]?
**A.** Its ED50 is 149000 nM.

**Q.** What about the ED50 [34] of the same compound?
**A.** The ED50 was 50.8 nM.

**Q.** What about the ED50 [35] of the same compound?
**A.** Its ED50 is 2900 nM.

**Q.** What about the ED50 [36] of the same compound?
**A.** The ED50 was 72.9 nM.

**Q.** And the ED50 [37]?
**A.** The ED50 was 8.4 nM.

**Q.** What about the ED50 (Translin (Homo sapiens)) of the same compound?
**A.** Its ED50 is 1.01 nM.

**Q.** What about the ED50 [38] of the same compound?
**A.** Its ED50 is 8.94 nM.

**Q.** What about the ED50 [39] of the same compound?
**A.** Its ED50 is 393 nM.

**Q.** And the ED50 [40]?
**A.** The ED50 was 359 nM.

**Q.** What about the ED50 [41] of the same compound?
**A.** Its ED50 is 53.4 nM.

**Q.** And the ED50 [42]?
**A.** The ED50 was 18.1 nM.

**Q.** And the ED50 [43]?
**A.** The ED50 was 4430 nM.
